System: KRAS PDC multicell spheroid viability
Experiment: Anticancer human tumor 521955-158-R6-J3-PDC patient-derived pancreatic carcinoma cell line growth inhibition [KRAS2]
Conditions: for IC50: curve of first compound; for viability, T/C: stronger effect = lower value
Procedure, shortened: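 Combination screen of spheroid viability in tumor-cell co-cultures with endothelial (HUVEC) and mesenchymal stem cell stroma. Each agent was tested in half-log dilutions, topping at clinical Cmax or at 10 microM without a known Cmax.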

[1] = second compound 0.1 µM, first compound 0.0316 µM
[2] = second compound 0.1 µM, first compound 0.1 µM
[3] = second compound 0.1 µM, first compound 0.316 µM
[4] = second compound 0.1 µM, first compound 1 µM
[5] = second compound 0.1 µM, first compound 3.16 µM
[6] = second compound 0.1 µM, first compound 10 µM
[7] = second compound 0.316 µM, first compound 0.0316 µM
[8] = second compound 0.316 µM, first compound 0.1 µM
[9] = second compound 0.316 µM, first compound 0.316 µM
[10] = second compound 0.316 µM, first compound 1 µM
[11] = second compound 0.316 µM, first compound 3.16 µM
[12] = second compound 0.316 µM, first compound 10 µM
[13] = second compound 1 µM, first compound 0.0316 µM
[14] = second compound 1 µM, first compound 0.1 µM
[15] = second compound 1 µM, first compound 0.316 µM
[16] = second compound 1 µM, first compound 1 µM
[17] = second compound 1 µM, first compound 3.16 µM
[18] = second compound 1 µM, first compound 10 µM
[19] = second compound 3.16 µM, first compound 0.0316 µM
[20] = second compound 3.16 µM, first compound 0.1 µM
[21] = second compound 3.16 µM, first compound 0.316 µM
[22] = second compound 3.16 µM, first compound 1 µM
[23] = second compound 3.16 µM, first compound 3.16 µM
[24] = second compound 3.16 µM, first compound 10 µM
[25] = second compound 10 µM, first compound 0.0316 µM
[26] = second compound 10 µM, first compound 0.1 µM
[27] = second compound 10 µM, first compound 0.316 µM
[28] = second compound 10 µM, first compound 1 µM
[29] = second compound 10 µM, first compound 3.16 µM
[30] = second compound 10 µM, first compound 10 µM
[31] = second compound 0.1 µM, first compound 0.00316 µM
[32] = second compound 0.1 µM, first compound 0.01 µM
[33] = second compound 0.316 µM, first compound 0.00316 µM
[34] = second compound 0.316 µM, first compound 0.01 µM
[35] = second compound 1 µM, first compound 0.00316 µM
[36] = second compound 1 µM, first compound 0.01 µM
[37] = second compound 3.16 µM, first compound 0.00316 µM
[38] = second compound 3.16 µM, first compound 0.01 µM
[39] = second compound 10 µM, first compound 0.00316 µM
[40] = second compound 10 µM, first compound 0.01 µM
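Further: drug exposure lasted seven days.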
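Wherever viability, T/C is given: 100% = DMSO vehicle wells and lower means fewer viable cells.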

| SMILES | IC50 (second compound 0.1 µM) [µM] | IC50 (second compound 0.316 µM) [µM] | IC50 (second compound 1 µM) [µM] | IC50 (second compound 3.16 µM) [µM] | IC50 (second compound 10 µM) [µM] | viability, T/C [1] [%] | viability, T/C [2] [%] | viability, T/C [3] [%] | viability, T/C [4] [%] | viability, T/C [7] [%] | viability, T/C [8] [%] | viability, T/C [9] [%] | viability, T/C [10] [%] | viability, T/C [13] [%] | viability, T/C [14] [%] | viability, T/C [15] [%] | viability, T/C [19] [%] | viability, T/C [20] [%] | viability, T/C [25] [%] | viability, T/C [26] [%] | other results |
| --- | --- | --- | --- | --- | --- | --- | --- | --- | --- | --- | --- | --- | --- | --- | --- | --- | --- | --- | --- | --- | --- |
| CC1(C)CCC(CN2CCN(c3ccc(C(=O)NS(=O)(=O)c4ccc(NCC5CCOCC5)c([N+](=O)[O-])c4)c(Oc4cnc5[nH]ccc5c4)c3)CC2)=C(c2ccc(Cl)cc2)C1 + CC1OCC2(CCN(c3cnc(Sc4ccnc(N)c4Cl)c(N)n3)CC2)C1N | 7.01 | 5.82 | 5.51 | 4.36 | 2.84 | 96 | 89.7 | 95.3 | 77.6 | 86.2 | 98.2 | 89 | 87 | 102 | 94.7 | 103 | 115 | 120 | 107 | 109 | viability, T/C [5]: 70.5%; viability, T/C [6]: 41.3%; viability, T/C [11]: 62%; viability, T/C [12]: 39.3%; viability, T/C [16]: 99%; viability, T/C [17]: 71.1%; viability, T/C [18]: 27.3%; viability, T/C [21]: 121%; viability, T/C [22]: 116%; viability, T/C [23]: 64.2%; viability, T/C [24]: 13.1%; viability, T/C [27]: 114%; viability, T/C [28]: 107%; viability, T/C [29]: 44.3%; viability, T/C [30]: 3.41% |
| CN(C)C/C=C/C(=O)Nc1cc2c(Nc3ccc(F)c(Cl)c3)ncnc2cc1O[C@H]1CCOC1 + COc1cc2nc(C)nc(NC(C)c3cc(N)cc(C(F)(F)F)c3)c2cc1OC1CCOC1 | > 0.1 | > 0.1 | > 0.1 | 0.00284 | 0.0032 | 54 | 55.5 |  |  | 54.7 | 53.2 |  |  | 56.1 | 48.6 |  | 44.4 | 45.5 | 32.8 | 25.4 | viability, T/C (second compound 0.1 µM, first compound 0.000316 µM): 89.3%; viability, T/C (second compound 0.1 µM, first compound 0.001 µM): 78.3%; viability, T/C [31]: 72.3%; viability, T/C [32]: 61.2%; viability, T/C (second compound 0.316 µM, first compound 0.000316 µM): 93%; viability, T/C (second compound 0.316 µM, first compound 0.001 µM): 106%; viability, T/C [33]: 78.5%; viability, T/C [34]: 65%; viability, T/C (second compound 1 µM, first compound 0.000316 µM): 105%; viability, T/C (second compound 1 µM, first compound 0.001 µM): 100%; viability, T/C [35]: 89.5%; viability, T/C [36]: 61.8%; viability, T/C (second compound 3.16 µM, first compound 0.000316 µM): 84%; viability, T/C (second compound 3.16 µM, first compound 0.001 µM): 78.2%; viability, T/C [37]: 46.9%; viability, T/C [38]: 51.1%; viability, T/C (second compound 10 µM, first compound 0.000316 µM): 59.8%; viability, T/C (second compound 10 µM, first compound 0.001 µM): 54.9%; viability, T/C [39]: 50.2%; viability, T/C [40]: 26.2% |
| CC1(C)CCC(CN2CCN(c3ccc(C(=O)NS(=O)(=O)c4ccc(NCC5CCOCC5)c([N+](=O)[O-])c4)c(Oc4cnc5[nH]ccc5c4)c3)CC2)=C(c2ccc(Cl)cc2)C1 + C=CC(=O)N1CCN(c2nc(=O)n(-c3c(C)ccnc3C(C)C)c3nc(-c4c(O)cccc4F)c(F)cc23)C(C)C1 | 5.94 | 7.34 | 4.83 | 6.49 | 2.96 | 89.3 | 98.8 | 97.1 | 93.2 | 113 | 112 | 101 | 102 | 111 | 104 | 106 | 91.9 | 93.5 | 89.2 | 104 | viability, T/C [5]: 72.2%; viability, T/C [6]: 31.6%; viability, T/C [11]: 77.5%; viability, T/C [12]: 39.5%; viability, T/C [16]: 95.8%; viability, T/C [17]: 65.4%; viability, T/C [18]: 23.4%; viability, T/C [21]: 95.2%; viability, T/C [22]: 92.1%; viability, T/C [23]: 67.2%; viability, T/C [24]: 39.6%; viability, T/C [27]: 88.7%; viability, T/C [28]: 73.5%; viability, T/C [29]: 49.8%; viability, T/C [30]: 25.7% |
| CCN1CCN(Cc2ccc(Nc3ncc(F)c(-c4cc(F)c5nc(C)n(C(C)C)c5c4)n3)nc2)CC1 + CC1OCC2(CCN(c3cnc(Sc4ccnc(N)c4Cl)c(N)n3)CC2)C1N | > 1 | > 1 | > 1 | > 1 | > 1 | 73 | 68.4 | 76 | 88.2 | 82.3 | 69.2 | 71.8 | 85.3 | 97 | 82.1 | 78.8 | 84.4 | 78.7 | 111 | 114 | viability, T/C [31]: 81.3%; viability, T/C [32]: 79.9%; viability, T/C [33]: 101%; viability, T/C [34]: 84.1%; viability, T/C [35]: 94.5%; viability, T/C [36]: 91.2%; viability, T/C [16]: 90.1%; viability, T/C [37]: 113%; viability, T/C [38]: 109%; viability, T/C [21]: 83.6%; viability, T/C [22]: 115%; viability, T/C [39]: 118%; viability, T/C [40]: 116%; viability, T/C [27]: 95.1%; viability, T/C [28]: 86.7% |
| CC1COCCN1c1cc(-c2ccnn2C)c2ccnc(-c3ccn[nH]3)c2n1 (stereo not given) + C=CC(=O)N1CCN(c2nc(=O)n(-c3c(C)ccnc3C(C)C)c3nc(-c4c(O)cccc4F)c(F)cc23)C(C)C1 | > 3.16 | > 3.16 | > 3.16 | > 3.16 | > 3.16 | 91 | 76.7 | 77.9 | 73 | 98.4 | 87.8 | 95.1 | 88 | 111 | 96 | 84.5 | 96.9 | 88.4 | 69.5 | 71 | viability, T/C [32]: 97.3%; viability, T/C [5]: 82.7%; viability, T/C [34]: 95%; viability, T/C [11]: 91.9%; viability, T/C [36]: 91.7%; viability, T/C [16]: 79.6%; viability, T/C [17]: 91.9%; viability, T/C [38]: 88.4%; viability, T/C [21]: 79.3%; viability, T/C [22]: 69.4%; viability, T/C [23]: 82.2%; viability, T/C [40]: 77.6%; viability, T/C [27]: 57.2%; viability, T/C [28]: 67.2%; viability, T/C [29]: 66.9% |
| COc1cc2nccc(Oc3ccc(NC(=O)C4(C(=O)Nc5ccc(F)cc5)CC4)cc3)c2cc1OC + COc1cc2nc(C)nc(NC(C)c3cc(N)cc(C(F)(F)F)c3)c2cc1OC1CCOC1 | > 10 | > 10 | > 10 | > 10 | < 0.0316 | 89.3 | 91.9 | 78.7 | 91.3 | 93.3 | 97.2 | 90.1 | 90.9 | 79.8 | 84.4 | 83.5 | 70.5 | 73.9 | 49.1 | 11.8 | viability, T/C [5]: 101%; viability, T/C [6]: 90.2%; viability, T/C [11]: 97.5%; viability, T/C [12]: 95.2%; viability, T/C [16]: 88.1%; viability, T/C [17]: 103%; viability, T/C [18]: 78.7%; viability, T/C [21]: 70.8%; viability, T/C [22]: 72.8%; viability, T/C [23]: 89.5%; viability, T/C [24]: 53.6%; viability, T/C [27]: 18.1%; viability, T/C [28]: 27.6%; viability, T/C [29]: 2.28%; viability, T/C [30]: 1.88% |
